Experimental data as given in patent publication US10533164B2, “Mutant sialidase having trans-sialidase activity for use in production of sialylated glycans” (priority 2013, dated 2020).
Residue numbers refer to the chain shown, from its start. In names and notes the source's numbering stands.

B1: Tr6 P98A: Tr6 mutant, reversion of mutation P98A (protein)
chain: LAPGSSRVELFKRKNSTVPFEESNGTIRERVVHSFRLPTIVNVDGVMVAIADARYETSFDNSFIETAVKYSVDDGATWNTQIAIKNSRASSVSRVVDATVIVKGNKLYILVGSFNKTRNYWTQHRDGSDWEPLLVVGEVTKSAANGKTTATISWGKPVSLKPLFPAEFDGILTKEFVGGVGAAIVASNGNLVYPVQIADMGGRVFTKIMYSEDDGNTWKFAEGRSKFGCSEPAVLEWEGKLIINNRVDYNRRLVYESSDMGKTWVEALGTLSHVWTNSPTSNQPDCQSSFVAVTIEGKRVMLFTHPLNLKGRWMRDRLHLWMTDNQRIFDVGQISIGDENSGYSSVLYKDDKLYSLHEINTNDVYSLVFVRLIGELQLMKSVVRTWKEEDNHLASICTPVVPATPPSKGACGAAVPTAGLVGFLSHSANGSVWEDVYRCVDANVANAERVPNGLKFNGVGGGAVWPVARQGQTRRYQFANYRFTLVATVTIDELPKGTSPLLGAGLEGPGDAKLLGLSYDKNRQWRPLYGAAPASPTGSWELHKKYHVVLTMADRQGSVYVDGQPLAGSGNTVVRGATLPDISHFYIGGPRSKGAPTDSRVTVTNVVLYNRRLNSSEIRTLFLSQDMIGTDGGAGTAA
B2: Tr6 Y249G: Tr6 mutant, reversion of mutation Y249G (protein)
chain: B1 chain with A98P, Y249G
B3: Tr6 D363E: Tr6 sialidase mutant with amino acid change D363E (protein)
chain: B1 chain with A98P, D363E

Assays:
[1] = test system: Bifidobacterium longum infantis (DGCC 2238); assay: Bacterial growth on sialylated glycans; format: cell-based; conditions: B. infantis 2238; substrate 10 g/L in MRS-medium; average of 3 replicates
[2] = test system: Lactobacillus acidophilus (NCFM, ATCC 700396); assay: Bacterial growth on sialylated glycans; format: cell-based; conditions: L. acidophilus; substrate 10 g/L in MRS-medium; average of 3 replicates
[3] = test system: Bifidobacterium longum infantis (DGCC 233); assay: Bacterial growth on sialylated glycans; format: cell-based; conditions: B. infantis 233; for Area under the growth curve: substrate 10 g/L in MRS-medium, average of 3 replicates
[4] = test system: Bifidobacterium longum (BI-05, DGCC 9917); assay: Bacterial growth on sialylated glycans; format: cell-based; conditions: B. longum 9917; substrate 10 g/L in MRS-medium; average of 3 replicates
[5] = test system: Bifidobacterium longum longum (DGCC 232); assay: Bacterial growth on sialylated glycans; format: cell-based; conditions: B. longum 232; for Area under the growth curve: substrate 10 g/L in MRS-medium, average of 3 replicates
[6] = test system: Bifidobacterium lactis (HN019, DGCC2013); assay: Bacterial growth on sialylated glycans; format: cell-based; conditions: B. lactis; substrate 10 g/L in MRS-medium; average of 3 replicates
[7] = test system: Clostridium perfringens (ATCC 13124); format: cell-based; conditions: C. perfringens; substrate 10 g/L in MRS-medium; average of 3 replicates
[8] = test system: Bifidobacterium longum infantis (DGCC 1497); assay: Bacterial growth on sialylated glycans; format: cell-based; conditions: B. infantis 1497; for Area under the growth curve: substrate 10 g/L in MRS-medium, average of 3 replicates
[9] = test system: group of probiotic strains; assay: Bacterial growth on sialylated glycans, probiotic strains as a group; format: cell-based
[10] = Trans-sialidase activity assay (fluorescence-based); format: biochemical; conditions: for trans-sialidase activity relative to Tr6 parent (product formation, FIG. 4): mutants from shake flask cultures, cGMP donor, MU-Gal acceptor
Experimental: The invention provides a method for assaying the mutant trans-sialidase of the invention, that may for example be obtained by recombinant expression. Example 2.1 describes a fluorescence-based assay employing cGMP-bound sialic acid (for example 1 mM) as donor substrate and methylumbelliferyl-β-D-galactopyranoside (MU-Gal) as the acceptor (for example 0.5 mM), where the reaction is performed in a 50 mM phosphate-citrate (pH 6) at 30° C.
Trans-sialidase activity was assayed as described previously but with the following modifications. Reactions were performed in 50 mM phosphate-citrate (pH 6) at 30° C. using 2.9 μg/mL enzyme. The assay employed 1 mM cGMP-bound sialic acid as donor substrate and MU-Gal as the acceptor. MU-Gal at 0.5 mM was the highest final concentration to be tested due to its low solubility in aqueous solution. A solution of 87 mM MU-Gal in DMSO was diluted to 2 mM in 50 mM phosphate-citrate buffer (pH 6) immediately before preparing the reactions. When assaying crude enzyme preparations from P. pastoris, a background signal was observed, and attributed to cleavage of MU-Gal by endogenous β-galactosidase. This background signal could be removed by washing the column eight times with 440 μL of 5 mM HCl after sample application without desorption of the sialylated product and this was therefore done routinely.
To assess the performance of the mutant enzymes, they were produced by recombinant expression in P. pastoris, transformed with the respective mutant gene, by growth in shake flask cultures. The trans-sialidase activity of the expressed mutant enzymes was measured with a fluorescence-based assay using cGMP as sialic acid donor and methylumbelliferyl-β-D-galactopyranoside (MU-Gal) as acceptor (FIG. 4). As the detected product is a measure of both the trans-sialidase activity (product formation) and hydrolase activity (product degradation) the assay provides an effective screen for mutants having a higher trans-sialidase to hydrolase activity ratio.

[11] = Sialidase (hydrolase) activity assay; format: biochemical; conditions: substrate pNP-Neu5Ac; compared with Tr6
Experimental: Sialidase activity was measured in a reaction containing 50 mM phosphate-citrate buffer (pH 7), 0.75 mM pNP-NeuAc and 3 μg/mL sialidase enzyme. Reactions were initiated by addition of substrate and followed spectrophotometrically at 410 nm at 30° C. pH 7 was chosen to enable detection of released pNP in a continuous assay. Reaction rates were normalized as % of the activity of the Tr6 parent enzyme. For measurement of hydrolysis of natural substrates, the assay was performed with either 1 mM 3′-sialyllactose, 1 mM 6′-sialyllactose or 1 mM cGMP-bound sialic acid in 50 mM phosphate-citrate buffer (pH 5) using 1 μg/mL enzyme. Reactions were started by addition of enzyme and stopped by adding H2SO4 to 45 mM final concentration. Quantification of free sialic acid was performed using a 2-thiobarbituric acid assay with the modification that butanol extraction was substituted with mixing with dimethyl sulfoxide (DMSO).

Molecule | Area under the growth curve [1] [OD600 × min] | Area under the growth curve [2] [OD600 × min] | growth promotion (in words) [3] | Area under the growth curve [3] [OD600 × min] | Area under the growth curve [4] [OD600 × min] | growth promotion (in words) [5] | Area under the growth curve [5] [OD600 × min] | Area under the growth curve [6] [OD600 × min] | Area under the growth curve [7] [OD600 × min] | growth promotion (in words) [8] | Area under the growth curve [8] [OD600 × min] | growth promotion (in words) [9] | trans-sialidase activity relative to Tr6 parent (product formation, FIG. 4) [10] | trans-sialylated product yield (maximum product formation, FIG. 5B) ([10]; purified enzyme from 5 L fermentor, time course, compared with Tr6) | hydrolase activity (FIG. 5A) [11]
SA-α-Fuc [S-fucose] | 285 ± 15 | 188 ± 18 | promoted growth | 71 ± 6 | 114 ± 15 | promoted growth | 192 ± 20 | 192 ± 27 | 811 ± 48 | promoted growth | 149 ± 2 |  |  |  | 
CC(=O)NC1C(O)CC(OC2C(O)C(CO)OC(OCC3OC(O)C(O)C(O)C3O)C2O)(C(=O)O)OC1C(O)C(O)CO (stereo not drawn) [S-melibiose, SA-α-Gal-1,6-α-Glc] | 302 ± 2 | 192 ± 4 |  | 14 ± 6 | 70 ± 8 |  | 104 ± 17 |  |  |  |  | did not appear to promote growth |  |  | 
SA-α-Gal-1,4-β-Fru [S-lactulose] | 269 ± 20 | 128 ± 2 |  | 109 ± 20 | 34 ± 14 |  | 134 ± 19 | 122 ± 18 | 541 ± 17 |  | 34 ± 2 |  |  |  | 
SA-α-Glc-1,4-α-Glc [S-maltose] | 158 ± 24 | 193 ± 12 |  | 30 ± 4 | 101 ± 6 |  | 122 ± 31 | 102 ± 8 | 844 ± 99 |  |  | did not appear to promote growth |  |  | 
B1 |  |  |  |  |  |  |  |  |  |  |  |  | reduction in trans-sialidase activity |  | 
B2 |  |  |  |  |  |  |  |  |  |  |  |  | reduction in trans-sialidase activity |  | 
B3 |  |  |  |  |  |  |  |  |  |  |  |  | enhanced trans-sialidase activity | similarly low product formation profile as Tr6 | reduced hydrolase activity
